Laboratory results as given in ChEMBL document CHEMBL6182839, “Exploration of the cytotoxic and microtubule disruption potential of novel imidazo[1,5-a]pyridine-based chalcones” (RSC Med Chem, 2025).
The source made the active and inactive calls. The rule behind the calls is not given here.

How the values were obtained:
[1] = tested on: MDA-MB-231; assay: Induction of apoptosis in human MDA-MB-231 cells assessed as early apoptotic cells at 10 uM incubated for 24 hrs by annexin V-FITC/PI staining based flow cytometry analysis (reference value: 1.4%); format: functional
[2] = tested on: MDA-MB-231; assay: Induction of apoptosis in human MDA-MB-231 cells assessed as late apoptotic cells at 10 uM incubated for 24 hrs by annexin V-FITC/PI staining based flow cytometry analysis (reference value: 0.2%); format: functional
[3] = tested on: Mitochondrial membrane; assay: Induction of mitochondrial membrane potential depolarization in human MDA-MB-231 cells at 5 to 10 uM incubated for 24 hrs by JC-1 dye based flow cytometric analysis; details: dose 5-10 µM
[4] = tested on: MDA-MB-231; assay: Induction of apoptosis in human MDA-MB-231 cells assessed as necrotic cells at 10 uM incubated for 24 hrs by annexin V-FITC/PI staining based flow cytometry analysis (reference value: 0.0%); format: functional
[5] = tested on: PC-3; assay: Cytotoxicity against human PC-3 cells assessed as inhibition of cell growth incubated for 48 hrs by MTT assay; format: functional, cell-based; details: PC-3, 48 h
[6] = tested on: MDA-MB-231; assay: Induction of apoptosis in human MDA-MB-231 cells assessed as viable cells at 10 uM incubated for 24 hrs by annexin V-FITC/PI staining based flow cytometry analysis (reference value: 98.4%); format: functional; details: read-out: Activity
[7] = tested on: MG-63; assay: Cytotoxicity against human MG-63 cells assessed as inhibition of cell growth incubated for 48 hrs by MTT assay; format: functional, cell-based; details: MG-63, 48 h
[8] = tested on: HepG2; assay: Cytotoxicity against human HepG2 cells assessed as inhibition of cell growth incubated for 48 hrs by MTT assay; format: functional, cell-based; details: HepG2, 48 h
[9] = tested on: MDA-MB-231; assay: Induction of intracellular ROS generation in human MDA-MB-231 cells at 5 to 10 uM incubated for 24 hrs by H2DCFDA staining based flow cytometric analysis; format: functional, cell-based; details: dose 5-10 µM
[10] = tested on: RKO; assay: Cytotoxicity against human RKO cells assessed as inhibition of cell growth incubated for 48 hrs by MTT assay; format: functional, cell-based
[11] = tested on: MDA-MB-231; assay: Cytotoxicity against human MDA-MB-231 cells assessed as inhibition of cell growth incubated for 48 hrs by MTT assay; format: functional, cell-based; details: MDA-MB-231, 48 h
[12] = tested on: MDA-MB-231; assay: Induction of apoptosis in human MDA-MB-231 cells assessed as viable cells at 5 uM incubated for 24 hrs by annexin V-FITC/PI staining based flow cytometry analysis (reference value: 98.4%); format: functional; details: read-out: Activity
[13] = tested on: MDA-MB-231; assay: Induction of apoptosis in human MDA-MB-231 cells assessed as early apoptotic cells at 5 uM incubated for 24 hrs by annexin V-FITC/PI staining based flow cytometry analysis (reference value: 1.4%); format: functional
[14] = target: T1, Tubulin (Homo sapiens) (UniProt P68371+Q9H4B7+P0DPH7+P68366+Q13509+Q71U36+P04350+Q3ZCM7+P07437+P68363+Q9BQE3+Q6PEY2+Q13885+Q9BVA1+Q9BUF5); assay: Disruption of microtubule network in human MDA-MB-231 cells assessed as decrease in beta-tubulin expression incubated for 24 hrs by immunofluorescence staining based confocal microscopic analysis; format: cell-based; details: dose 5-10 µM
[15] = tested on: MDA-MB-231; assay: Induction of apoptosis in human MDA-MB-231 cells assessed as necrotic cells at 5 uM incubated for 24 hrs by annexin V-FITC/PI staining based flow cytometry analysis (reference value: 0.0%); format: functional
[16] = Selectivity ratio of IC50 for HEK cells to IC50 for human HepG2 cells; format: toxicity; details: HEK cells versus HepG2 cells, read-out: Ratio IC50
[17] = Selectivity ratio of IC50 for HEK cells to IC50 for human MDA-MB-231 cells; format: toxicity; details: HEK cells versus MDA-MB-231 cells, read-out: Ratio IC50
[18] = target: T1, Tubulin (Homo sapiens); assay: Disruption of microtubule network in human MDA-MB-231 cells assessed as decrease in beta-tubulin expression at 5 to 10 uM incubated for 24 hrs by immunofluorescence staining based confocal microscopic analysis; format: cell-based; details: dose 5-10 µM
[19] = tested on: MDA-MB-231; assay: Induction of apoptosis in human MDA-MB-231 cells assessed as late apoptotic cells at 5 uM incubated for 24 hrs by annexin V-FITC/PI staining based flow cytometry analysis (reference value: 0.2%); format: functional
[20] = Cytotoxicity against HEK cells assessed as inhibition of cell growth incubated for 48 hrs by MTT assay; format: toxicity, cell-based; details: human
[21] = Selectivity ratio of IC50 for HEK cells to IC50 for human PC-3 cells; format: toxicity; details: HEK cells versus PC-3 cells, read-out: Ratio IC50

Row | Structure (SMILES) | IC50 [5] [µM] | IC50 [7] [µM] | IC50 [8] [µM] | IC50 [10] [µM] | IC50 [11] [µM] | other results
1 | COC(=O)Nc1nc2cc(C(=O)c3cccs3)ccc2[nH]1 [NOCODAZOLE] | 2.89 | 1.25 | 2.15 | 2.56 | 3.2 | Activity [1]: 5.6%; Activity [2]: 48.3%; Activity [3]: Active; Activity [4]: 0%; viability at 10 µM [6]: 46%; Activity [9]: Active
2 | COc1ccc(C(=O)/C=C/c2nc(-c3ccc(Cl)cc3)n3ccccc23)cc1OC | > 50 | > 50 | > 50 | > 50 | > 50 | 
3 | COc1cc(C(=O)/C=C/c2nc(-c3ccc(F)cc3)n3ccccc23)cc(OC)c1OC | > 50 | > 50 | > 50 | > 50 | > 50 | 
4 | COc1ccc(-c2nc(/C=C/C(=O)c3ccc(F)c(F)c3)c3ccccn23)cc1 | > 50 | 32.6 | > 50 | > 50 | > 50 | 
5 | O=C(/C=C/c1nc(-c2ccc(F)cc2)n2ccccc12)c1ccc(Cl)c(Cl)c1 | > 50 | 10.2 | > 50 | > 50 | > 50 | 
6 | COc1cc(C(=O)/C=C/c2nc(-c3ccc(Cl)cc3)n3ccccc23)cc(OC)c1OC | 17.9 | 6.23 | 20.8 | 18.8 | 4.23 | viability at 5 µM [12]: 90.6%; Activity [1]: 18.6%; Activity [13]: 3.8%; Activity [14]: Dose-dependent-effect; Activity [15]: 0%; selectivity ratio [16]: 2; Activity [2]: 13.9%; selectivity ratio [17]: 11; Activity [18]: Active; Activity [3]: Active; Activity [4]: 0.3%; viability at 10 µM [6]: 67.2%; Activity [19]: 5.5%; IC50 at 48 h [20]: 50 µM; Activity [9]: Active; selectivity ratio [21]: 3
7 | O=C(/C=C/c1nc(-c2ccccc2)n2ccccc12)c1ccc(Cl)c(Cl)c1 | > 50 | 45.6 | > 50 | > 50 | > 50 | 
8 | O=C(/C=C/c1nc(-c2ccc(Cl)cc2)n2ccccc12)c1ccc(Cl)c(Cl)c1 | 14.9 | 7.89 | 4.57 | 7.83 | 3.26 | viability at 5 µM [12]: 66.5%; Activity [1]: 21.2%; Activity [13]: 5.1%; Activity [14]: Dose-dependent-effect; Activity [15]: 1.6%; selectivity ratio [16]: 13; Activity [2]: 29.9%; selectivity ratio [17]: 19; Activity [18]: Active; Activity [3]: Active; Activity [4]: 0.3%; viability at 10 µM [6]: 48.6%; Activity [19]: 26.9%; IC50 at 48 h [20]: 62 µM; Activity [9]: Active; selectivity ratio [21]: 4
9 | COc1ccc(C(=O)/C=C/c2nc(-c3ccccc3)n3ccccc23)cc1OC | > 50 | 56.3 | > 50 | > 50 | > 50 | 
10 | COc1ccc(C(=O)/C=C/c2nc(-c3ccc(F)cc3)n3ccccc23)cc1OC | > 50 | > 50 | > 50 | > 50 | > 50 | 
11 | COc1ccc(-c2nc(/C=C/C(=O)c3ccc(OC)c(OC)c3)c3ccccn23)cc1 | > 50 | 20.5 | > 50 | > 50 | > 50 | 
12 | COc1cc(C(=O)/C=C/c2nc(-c3ccc(C(F)(F)F)cc3)n3ccccc23)cc(OC)c1OC | > 50 | > 50 | > 50 | > 50 | > 50 | 
13 | O=C(/C=C/c1nc(-c2ccc(Cl)cc2)n2ccccc12)c1ccc(F)c(F)c1 | > 50 | > 50 | > 50 | > 50 | > 50 | 
14 | O=C(/C=C/c1nc(-c2ccc(C(F)(F)F)cc2)n2ccccc12)c1ccc(Cl)c(Cl)c1 | > 50 | > 50 | > 50 | > 50 | > 50 | 
15 | O=C(/C=C/c1nc(-c2ccc(F)cc2)n2ccccc12)c1ccc(F)c(F)c1 | > 50 | 11.6 | > 50 | > 50 | > 50 | 
16 | COc1ccc(-c2nc(/C=C/C(=O)c3ccc(Cl)c(Cl)c3)c3ccccn23)cc1 | > 50 | 46.3 | > 50 | > 50 | > 50 | 
17 | O=C(/C=C/c1nc(-c2ccccc2)n2ccccc12)c1ccc(F)c(F)c1 | > 50 | 85.2 | > 50 | > 50 | > 50 | 
18 | O=C(/C=C/c1nc(-c2ccc(C(F)(F)F)cc2)n2ccccc12)c1ccc(F)c(F)c1 | > 50 | > 50 | > 50 | > 50 | > 50 | 
19 | COc1cc(C(=O)/C=C/c2nc(-c3ccccc3)n3ccccc23)cc(OC)c1OC | > 50 | 12.6 | 13.6 | > 50 | 12.3 | 
20 | COc1ccc(C(=O)/C=C/c2nc(-c3ccc(C(F)(F)F)cc3)n3ccccc23)cc1OC | > 50 | > 50 | > 50 | > 50 | > 50 | 
21 | COc1ccc(-c2nc(/C=C/C(=O)c3cc(OC)c(OC)c(OC)c3)c3ccccn23)cc1 | > 50 | 21.3 | > 50 | > 50 | > 50 | 
